Columns and labels:
Assay in all cases: relative viability (nuclei count vs DMSO), 5 days (fraction); higher = more cells survive
[1] = compound: O=C(Nc1c[nH]nc1-c1nc2ccc(CN3CCOCC3)cc2[nH]1)NC1CC1 [AT9283] + C[C@]1(O)C[C@@H](c2nc(-c3ccc4ccc(-c5ccccc5)nc4c3)c3c(N)nccn32)C1 [Linsitinib] (partner 1 µM)
Procedure, shortened: (§1)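 Each reported value is a median over duplicate plates. It expresses relative viability: treated-well nuclei count divided by vehicle-well nuclei count. Lung cancer cell lines in 1536-well plates were dosed by pin tool a day after seeding, alone with one drug or with a fixed anchor-drug dose plus five library-drug doses (not always all listed) in √10 steps, and nuclei were counted after 5 days.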

[2] = compound: O=C(Nc1c[nH]nc1-c1nc2ccc(CN3CCOCC3)cc2[nH]1)NC1CC1 [AT9283] + Nc1ncn([C@H]2C[C@H](O)[C@@H](CO)O2)c(=O)n1 [Decitabine] (partner 2 µM)
Procedure, shortened: as §1

[3] = compound: C#Cc1cccc(Nc2ncnc3cc(OCCOC)c(OCCOC)cc23)c1 [Erlotinib] + Cc1cc(Nc2cc(N3CCN(C)CC3)nc(Sc3ccc(NC(=O)C4CC4)cc3)n2)n[nH]1 [Tozasertib] (partner 0.1 µM)
Procedure, shortened: as §1

[4] = compound: O=C(Nc1c[nH]nc1-c1nc2ccc(CN3CCOCC3)cc2[nH]1)NC1CC1 [AT9283] + C[C@@H](Oc1cc(-c2cnn(C3CCNCC3)c2)cnc1N)c1c(Cl)ccc(F)c1Cl [Crizotinib] (partner 1 µM)
Procedure, shortened: as §1

[5] = compound: C#Cc1cccc(Nc2ncnc3cc(OCCOC)c(OCCOC)cc23)c1 [Erlotinib] + COc1cc2c(Oc3ccc(NC(=O)C4(C(=O)Nc5ccc(F)cc5)CC4)cc3F)ccnc2cc1OCCCN1CCOCC1 [Foretinib] (partner 0.25 µM)
Procedure, shortened: as §1

| Cell Line | relative viability ([1]; first compound 0.003 µM) | relative viability ([1]; first compound 0.03 µM) | relative viability ([1]; first compound 0.09487 µM) | relative viability ([1]; first compound 0.3 µM) | relative viability ([2]; first compound 0.003 µM) | relative viability ([2]; first compound 0.03 µM) | relative viability ([2]; first compound 0.09487 µM) | relative viability ([2]; first compound 0.3 µM) | relative viability ([3]; first compound 0.02 µM) | relative viability ([3]; first compound 0.2 µM) | relative viability ([3]; first compound 0.6325 µM) | relative viability ([3]; first compound 2 µM) | relative viability ([4]; first compound 0.003 µM) | relative viability ([4]; first compound 0.03 µM) | relative viability ([4]; first compound 0.09487 µM) | relative viability ([4]; first compound 0.3 µM) | relative viability ([5]; first compound 0.02 µM) | relative viability ([5]; first compound 0.2 µM) | relative viability ([5]; first compound 0.6325 µM) | relative viability ([5]; first compound 2 µM) |
| --- | --- | --- | --- | --- | --- | --- | --- | --- | --- | --- | --- | --- | --- | --- | --- | --- | --- | --- | --- | --- |
| NCI-H727 | 0.211 | 0.16 | 0.199 | 0.23 | 0.697 | 0.642 | 0.754 | 0.517 | 0.616 | 0.51 | 0.493 | 0.424 | 0.813 | 0.461 | 0.27 | 0.323 | 0.847 | 0.75 | 0.813 | 0.726 |
| HCC-78 | 0.475 | 0.41 | 0.172 | 0.185 | 0.548 | 0.626 | 0.428 | 0.322 | 0.407 | 0.289 | 0.385 | 0.402 | 0.328 | 0.272 | 0.213 | 0.189 | 0.477 | 0.42 | 0.362 | 0.322 |
| RERF-LC-KJ | 0.995 | 0.508 | 0.264 | 0.208 | 0.746 | 0.477 | 0.282 | 0.224 | 0.55 | 0.53 | 0.44 | 0.381 | 0.788 | 0.526 | 0.293 | 0.23 | 0.875 | 0.834 | 0.803 | 0.715 |
| NCI-H1944 | 1.17 | 0.973 | 0.528 | 0.331 | 0.415 | 0.388 | 0.212 | 0.267 | 0.249 | 0.21 | 0.227 | 0.174 | 0.9 | 0.648 | 0.257 | 0.294 | 0.833 | 0.54 | 0.579 | 0.56 |
| HOP-62 | 0.927 | 0.721 | 0.178 | 0.173 | 0.212 | 0.217 | 0.152 | 0.165 | 0.405 | 0.409 | 0.411 | 0.26 | 1.13 | 0.747 | 0.285 | 0.167 | 1.22 | 1.08 | 1.15 | 0.89 |
| NCI-H358 | 0.447 | 0.142 | 0.12 | 0.17 | 0.219 | 0.143 | 0.102 | 0.0856 | 0.0843 | 0.111 | 0.0963 | 0.0822 | 0.391 | 0.175 | 0.156 | 0.145 | 0.656 | 0.408 | 0.39 | 0.176 |
| NCI-H1755 | 0.996 | 0.847 | 0.516 | 0.404 | 0.712 | 0.803 | 0.67 | 0.527 | – | 0.561 | 0.505 | 0.422 | 0.891 | 0.718 | 0.433 | 0.385 | 0.942 | 0.936 | 0.916 | 0.907 |
| NCI-H2126 | 0.685 | 0.758 | 0.714 | 0.276 | 0.589 | 0.625 | 0.439 | 0.303 | 0.841 | 0.691 | 0.674 | 0.481 | 0.943 | 1.02 | 0.69 | 0.465 | 1.29 | 1.05 | 0.947 | 0.764 |
| NCI-H520 | 0.926 | 0.37 | 0.291 | 0.181 | 0.381 | 0.297 | 0.272 | 0.171 | 0.427 | 0.471 | 0.466 | 0.432 | 0.692 | 0.322 | 0.285 | 0.182 | 0.803 | 0.926 | 0.749 | 0.745 |
| A-427 | 0.834 | 1.03 | 0.276 | 0.205 | 0.6 | 0.494 | 0.239 | 0.248 | 0.251 | 0.225 | 0.197 | 0.162 | 0.851 | 0.482 | 0.173 | 0.178 | 1.17 | 1.01 | 1.15 | 1.02 |
